“Also recorded” adds a separate entry of the source.
Legend:
[1] = system: C. neoformans serotype D strains JEC21 and B3501 and their deletion mutants; experiment: Antifungal drug sensitivity test: serially diluted cells spotted on YPD agar containing the drug; assay type: cell-based, Cryptococcus neoformans
Protocol: (§1) Each strain was incubated overnight at 30° C. in YPD medium, washed, serially diluted (1 to 10^4 dilutions) in dH2O, and spotted (3 μl) onto solid YPD medium containing indicated concentrations of stress-inducing agents or antifungal drugs as previously described in “Bahn Y S, Kojima K, Cox G M, Heitman J (2005) Mol Biol Cell 16: 2285-2300.” and “Bahn Y S, Kojima K, Cox G M, Heitman J (2006) Mol Biol Cell 17: 3122-3135”. To examine antifungal drug sensitivity, the cells were spotted on agar-solid YPD media containing amphotericin B (Sigma), fluconazole (Sigma), itraconazole (Sigma), ketoconazole (Sigma) and fludioxonil. Then spotted cells were incubated at 30° C. for 2-4 days and photographed.

[2] = system: C. neoformans serotype A H99 strain and its deletion mutants; experiment: as above; assay type: cell-based, Cryptococcus neoformans; settings: for drug sensitivity of hog1Δ mutant compared to WT / drug sensitivity of pbs2Δ mutant compared to WT / drug sensitivity of skn7Δ mutant compared to WT / drug sensitivity of ssk1Δ mutant compared to WT / drug sensitivity of ssk2Δ mutant compared to WT / drug sensitivity of tco2Δ mutant compared to WT: YPD agar, 30° C., 72 h
Protocol: as §1

Structure (SMILES): C[C@@H]1[C@H](O)[C@@H](C)/C=C/C=C/C=C/C=C/C=C/C=C/C=C/[C@H](O[C@@H]2O[C@H](C)[C@@H](O)[C@H](N)[C@@H]2O)C[C@@H]2O[C@](O)(C[C@@H](O)C[C@@H](O)[C@H](O)CC[C@@H](O)C[C@@H](O)CC(=O)O[C@H]1C)C[C@H](O)[C@H]2C(=O)O [amphotericin B]
- drug resistance of B3501 strain compared to JEC21 ([1]; B3501 (Hog1 constitutively phosphorylated)): higher resistance
- drug sensitivity of JEC21 strain ([1]; JEC21 (Hog1 not constitutively phosphorylated), compared with ssk2Δ mutant in H99 background): hypersensitivity
- effect of HOG1 mutation on drug sensitivity in JEC21 background ([1]; hog1Δ in JEC21): did not affect sensitivity
- effect of PBS2 mutation on drug sensitivity in JEC21 background ([1]; pbs2Δ in JEC21): did not affect sensitivity
- effect of SSK2 mutation on drug sensitivity in B3501 background ([1]; ssk2Δ in B3501): increased the amphotericin B sensitivity
- effect of SSK2 mutation on drug sensitivity in JEC21 background ([1]; ssk2Δ in JEC21): did not affect sensitivity
- drug sensitivity of aca1Δ mutant compared to WT ([2]; aca1Δ, H99 background): slightly higher AmpB susceptibility
- drug sensitivity of cac1Δ mutant compared to WT ([2]; H99 background): hypersensitive
- drug sensitivity of cac1Δ mutant compared to WT ([2]; H99 background, listed as AmpB): much higher AmpB-sensitivity
- drug sensitivity of ena1Δ mutant ([2]; ena1Δ): did not show high sensitivity
- drug sensitivity of ena1Δ nha1Δ double mutant ([2]; ena1Δ nha1Δ): considerably increased sensitivity
- drug sensitivity of gpa1Δ mutant compared to WT ([2]; H99 background): hypersensitive
- drug sensitivity of gpa1Δ mutant compared to WT ([2]; H99 background, listed as AmpB): much higher AmpB-sensitivity
- drug sensitivity of hog1Δ cac1Δ double mutant ([2]; compared to single mutants): even more sensitive
- drug sensitivity of hog1Δ pka1Δ double mutant ([2]; hog1Δ pka1Δ, compared to single mutants): even more sensitive
- drug sensitivity of hog1Δ mutant compared to WT ([2]; H99 background): dramatic hypersensitivity
- drug sensitivity of hsp12Δ mutant compared to WT ([2]; hsp12Δ, H99 background): slightly higher susceptibility
- drug sensitivity of hsp122Δ mutant compared to WT ([2]; hsp122Δ, H99 background): slightly higher susceptibility
- drug sensitivity of nha1Δ mutant ([2]; nha1Δ): did not show high sensitivity
- drug sensitivity of pbs2Δ mutant compared to WT ([2]; H99 background): dramatic hypersensitivity
- drug sensitivity of pka1Δ mutant compared to WT ([2]; H99 background): hypersensitive
- drug sensitivity of pka1Δ mutant compared to WT ([2]; H99 background, listed as AmpB): increased susceptibility
- drug sensitivity of ras1Δ aca1Δ double mutant ([2]; compared to each single mutant): hypersensitive
- drug sensitivity of ras1Δ aca1Δ double mutant ([2]; compared to each single mutant, listed as AmpB): higher AmpB-sensitivity than each single mutant
- drug sensitivity of ras1Δ cac1Δ double mutant ([2]; ras1Δ cac1Δ, compared to each single mutant): even higher AmpB susceptibility than each single mutant
- drug sensitivity of ras1Δ mutant compared to WT ([2]; ras1Δ, H99 background): higher susceptibility
- drug sensitivity of ras2Δ mutant compared to WT ([2]; ras2Δ, H99 background): slightly more sensitive
- drug sensitivity of skn7Δ mutant compared to WT ([2]; H99 background): WT-levels of resistance
- drug sensitivity of ssk1Δ mutant compared to WT ([2]; H99 background): dramatic hypersensitivity
- drug sensitivity of ssk2Δ mutant compared to WT ([2]; H99 background): dramatic hypersensitivity
- drug sensitivity of tco2Δ mutant compared to WT ([2]; H99 background): hypersensitivity

Structure (SMILES): OC(Cn1cncn1)(Cn1cncn1)c1ccc(F)cc1F [fluconazole]
- drug sensitivity of cac1Δ mutant compared to WT ([2]; H99 background): nearly as resistant
- drug sensitivity of gpa1Δ mutant compared to WT ([2]; H99 background): nearly as resistant
- drug sensitivity of hog1Δ cac1Δ double mutant ([2]; compared to single mutants): hypersensitivity; also recorded: hypersensitive
- drug sensitivity of hog1Δ mutant compared to WT ([2]; H99 background): hyper-resistance
- drug sensitivity of pbs2Δ mutant compared to WT ([2]; H99 background): hyper-resistance
- drug sensitivity of pka1Δ pka2Δ double mutant compared to WT ([2]; pka1Δ pka2Δ, H99 background): nearly as resistant
- drug sensitivity of pka1Δ mutant compared to WT ([2]; H99 background): nearly as resistant
- drug sensitivity of pka2Δ mutant compared to WT ([2]; pka2Δ, H99 background): nearly as resistant
- drug sensitivity of skn7Δ mutant compared to WT ([2]; H99 background): higher resistance
- drug sensitivity of ssk1Δ mutant compared to WT ([2]; H99 background): hyper-resistance
- drug sensitivity of ssk2Δ mutant compared to WT ([2]; H99 background): hyper-resistance
- drug sensitivity of tco2Δ mutant compared to WT ([2]; H99 background): higher resistance

Structure (SMILES): CC(=O)N1CCN(c2ccc(OCC3COC(Cn4ccnc4)(c4ccc(Cl)cc4Cl)O3)cc2)CC1 (centres unmarked) [ketoconazole]
- drug sensitivity of hog1Δ cac1Δ double mutant ([2]; compared to single mutants): hypersensitivity; also recorded: hypersensitive
- drug sensitivity of hog1Δ mutant compared to WT ([2]; H99 background): hyper-resistance
- drug sensitivity of pbs2Δ mutant compared to WT ([2]; H99 background): hyper-resistance
- drug sensitivity of skn7Δ mutant compared to WT ([2]; H99 background): higher resistance
- drug sensitivity of ssk1Δ mutant compared to WT ([2]; H99 background): hyper-resistance
- drug sensitivity of ssk2Δ mutant compared to WT ([2]; H99 background): hyper-resistance
- drug sensitivity of tco2Δ mutant compared to WT ([2]; H99 background): higher resistance

Source: US9017956B2, “Use of the genes in the Hog, Ras and cAMP pathway for treatment of fungal infection” (Nutrex Technology Co., Ltd., priority 2009, dated 2015)
